Measured values reported in patent US5858994A, “Carbohydrate conjugates as inhibitors of cell adhesion” (priority 1994, dated 1999).
Like-named read-outs stand apart in the source and are kept apart here.

How the values were obtained:
E-Selectin = molecular target: T1, E-Selectin (Homo sapiens, UniProt P16581); experiment: Inhibition of HL60 cell adhesion to soluble, recombinant E-selectin (E-selectin-IgG1 fusion protein); format: cell-based
T1 sequence (P16581 22-556): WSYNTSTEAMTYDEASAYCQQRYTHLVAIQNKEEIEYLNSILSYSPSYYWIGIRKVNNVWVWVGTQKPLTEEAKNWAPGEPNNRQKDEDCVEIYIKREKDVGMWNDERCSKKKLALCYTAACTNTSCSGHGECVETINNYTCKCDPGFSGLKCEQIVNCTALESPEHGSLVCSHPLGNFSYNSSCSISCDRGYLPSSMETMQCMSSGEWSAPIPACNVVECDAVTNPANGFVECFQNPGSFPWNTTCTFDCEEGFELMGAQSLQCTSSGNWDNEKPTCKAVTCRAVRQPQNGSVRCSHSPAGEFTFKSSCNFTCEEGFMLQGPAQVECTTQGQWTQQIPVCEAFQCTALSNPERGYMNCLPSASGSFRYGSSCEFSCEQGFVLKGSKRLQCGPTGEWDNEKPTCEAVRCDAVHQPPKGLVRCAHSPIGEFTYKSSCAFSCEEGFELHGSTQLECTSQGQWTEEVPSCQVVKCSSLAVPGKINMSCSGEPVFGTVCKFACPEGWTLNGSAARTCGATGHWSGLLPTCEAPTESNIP
From the text: (§1) Carrying out these assays to measure the inhibitory activity of the compounds according to the invention on cell adhesion of promyelocytic cells by means of selecting is described in detail in European Published Application EP 0 601 417.
(§2) In order to test the efficacy of the carbohydrate conjugates on the interaction between the E- and P-selectins (former nomenclature ELAM-1 or GMP-140) with their ligands, an assay is used which in each case is specific only for one of these interactions. The ligands are supplied in their natural form as surface structures on promyelocytic HL60 cells. Since HL60 cells contain ligands and adhesion molecules of very different specificity, the desired specificity of the assay can only be produced by means of the binding component. The binding components used were genetically prepared soluble fusion proteins from the in each case extracytoplasmatic domains of E- or P-selectin and the constant region of a human immunoglobulin of the IgG1 subclass.
Preparation of L-selectin-IgG1
For the preparation of soluble L-selectin-IgG1 fusion protein, the genetic construct "ELAM-Rg" published by Walz et al., 1990 was used.
For expression, the plasmid DNA was transfected in COS-7 cells (ATCC) by means of DEAE-dextran (Molecular Biology Methods: see Ausubel, F. M., Brent, R., Kingston, R. E., Moore, D. D., Seidman, J. G., Struhl, K. and Smith, J. A. 1990. Current Protocols in Molecular Biology, John Wiley, New York). Seven days after transfection, the culture supernatant is recovered, freed from cells and cell fragments by centrifugation and transferred to 25 mM HEPES pH 7.0, 0.3 mM PMSF, 0.02% sodium azide and stored at +4° C.
(§3) 1. 96-well microtiter test plates (Nunc Maxisorb) are incubated at room temperature for 2 hours with 100 μl of a goat anti-human IgG antibody (Sigma) diluted (1+100) in 50 mM Tris pH 9.5. After removing the antibody solution washing is carried out once with PBS.
(§4) 2. 150 μl of the blocking buffer are left in the wells at room temperature for 1 hour. The composition of the blocking buffer is: 0.1% gelatin, 1% BSA, 5% calf serum, 0.2 mM PMSF, 0.02% sodium azide. After removing the blocking buffer washing is carried out once with PBS.
(§5) 3. 100 μl each of cell culture supernatant of appropriately transfected and expressing COS cells are pipetted into the wells. Incubation is carried out at room temperature for 2 hours. After removing the cell culture supernatant washing is carried out once with PBS.
(§6) 4. 20 μl of binding buffer are added to the wells. The binding buffer has the composition: 50 mM HEPES, pH 7.5; 100 mM NaCl; 1 mg/ml BSA; 2 mM MgCl2; 1 mM CaCl2; 3 mM MnCl2; 0.02% sodium azide; 0.2 mM PMSF. 5 μl of the test substance are pipetted into this, mixed by swirling the plate and incubated at room temperature for 10 minutes.
(§7) 5. 50 ml of an HL60 cell culture containing 200,000 cells/ml are centrifuged at 350 g for 4 minutes. The pellet is resuspended in 10 ml of RPMI 1640 and the cells are centrifuged again. For labeling the cells, 50 μg of BCECF-AM (Molecular Probes) are dissolved in 5 μl of anhydrous DMSO; 1.5 ml of RPMI 1640 are then added to the BCECF-AM/DMSO solution. The cells are resuspended using this solution and incubated at 37° C. for 30 minutes. After centrifugation at 350 g for 2 minutes, the labeled cell pellet is resuspended in 11 ml of binding buffer and the resuspended cells are distributed into the microtiter plate wells in 100 μl aliquots. The plate is allowed to stand at room temperature for 10 minutes in order to allow the cells to sediment on the bottom of the test plate. In the course of this, the cells have the opportunity to adhere to the coated plastic.
(§8) 6. To stop the test, the microtiter plate is immersed completely in the stop buffer (25 mM tris, pH 7.5; 125 mM NaCl; 0.1% BSA; 2 mM MgCl2; 1 mM CaCl2; 3 mM MnCl2; 0.02% sodium azide) at an angle of 45°. The stop buffer is removed from the wells by inversion and the procedure is repeated a further two times.

P-Selectin = molecular target: T2, P-Selectin (Homo sapiens, UniProt P16109); experiment: Inhibition of HL60 cell adhesion to soluble, recombinant P-selectin (P-selectin-IgG1 fusion protein); format: cell-based
T2 sequence (P16109 42-771): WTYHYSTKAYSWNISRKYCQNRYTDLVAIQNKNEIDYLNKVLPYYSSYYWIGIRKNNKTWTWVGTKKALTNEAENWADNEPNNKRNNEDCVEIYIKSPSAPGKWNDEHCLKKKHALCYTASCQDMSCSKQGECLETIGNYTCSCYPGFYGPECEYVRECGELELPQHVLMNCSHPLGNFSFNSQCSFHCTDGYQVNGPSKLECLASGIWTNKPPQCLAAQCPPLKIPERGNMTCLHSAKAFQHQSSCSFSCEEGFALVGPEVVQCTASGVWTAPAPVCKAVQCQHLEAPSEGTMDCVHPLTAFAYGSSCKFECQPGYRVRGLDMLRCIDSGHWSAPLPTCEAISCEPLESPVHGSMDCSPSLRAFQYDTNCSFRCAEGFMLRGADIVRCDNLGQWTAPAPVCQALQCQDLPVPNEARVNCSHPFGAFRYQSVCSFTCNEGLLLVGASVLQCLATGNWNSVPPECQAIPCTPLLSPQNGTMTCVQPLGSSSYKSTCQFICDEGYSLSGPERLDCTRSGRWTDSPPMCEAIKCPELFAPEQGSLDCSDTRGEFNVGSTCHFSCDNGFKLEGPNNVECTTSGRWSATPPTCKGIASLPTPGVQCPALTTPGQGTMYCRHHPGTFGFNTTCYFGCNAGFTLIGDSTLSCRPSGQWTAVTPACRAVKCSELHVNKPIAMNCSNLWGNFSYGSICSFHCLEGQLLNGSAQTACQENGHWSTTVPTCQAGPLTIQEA
From the text: as §1, §2
Preparation of P-selectin-IgG1
For preparation of the soluble P-selectin-IgG1 fusion protein, the genetic construct "ICD62Rg" published by Aruffo et al., 1991 is used. The further procedure corresponds to the preparation of L-selectin-IgG1 presented under A1.
as §3, §4, §5, §6, §7, §8
7. Measurement of the BCECF-AM-labeled cells firmly adhering to the wells is carried out in a cytofluorimeter (Millipore) at a sensitivity setting of 4, an excitation wavelength of 485/220 nm and an emission wavelength of 530/250 nm.

[1] = inhibition of HL60 cell adhesion to soluble, recombinant adhesion molecules, read-out: IC50 E-Selectin
[2] = inhibition of HL60 cell adhesion to soluble, recombinant adhesion molecules, read-out: IC50 P-Selectin

IC50 (E-Selectin; [1]) [µM]	IC50 (P-Selectin; [2]) [µM]	Compound	other results
1200	–	CC(=O)N[C@H]1[C@H](OCCCCCCNC(=O)[C@@H](N)CCC(=O)O)O[C@H](CO)[C@@H](O[C@@H]2O[C@H](CO)[C@H](O)[C@H](O[C@]3(C(=O)O)C[C@H](O)[C@@H](NC(C)=O)[C@H]([C@H](O)[C@H](O)CO)O3)[C@H]2O)[C@@H]1O[C@@H]1O[C@@H](C)[C@@H](O)[C@@H](O)[C@@H]1O [Compound I-6]	–
–	–	CC(=O)N[C@@H]1[C@@H](O[C@@H]2O[C@@H](C)[C@@H](O)[C@@H](O)[C@@H]2O)[C@H](O[C@@H]2O[C@H](CO)[C@H](O)[C@H](O[C@]3(C(=O)O)C[C@H](O)[C@@H](NC(C)=O)[C@H]([C@H](O)[C@H](O)CO)O3)[C@H]2O)[C@@H](CO)O[C@H]1NC(=O)[C@H](C)NC(=O)[C@H](CC(=O)O)NC(=O)CNC(=O)[C@@H](N)CCCNC(=N)N [Compound I-2]	IC50 (P-Selectin): 10 µM; IC50 (E-Selectin): > 800 µM
20	100	CCCCCCCCCCCCCCCC(=O)N[C@@H](CSCC(COC(=O)CCCCCCCCCCCCCCC)OC(=O)CCCCCCCCCCCCCCC)C(=O)NCCCCCCO[C@@H]1O[C@H](CO)[C@@H](O[C@@H]2O[C@H](CO)[C@H](O)[C@H](O[C@]3(C(=O)O)C[C@H](O)[C@@H](NC(C)=O)[C@H]([C@H](O)[C@H](O)CO)O3)[C@H]2O)[C@H](O[C@@H]2O[C@@H](C)[C@@H](O)[C@@H](O)[C@@H]2O)[C@H]1NC(C)=O (stereo partly drawn) [Compound I-13]	–
–	2000	CC(=O)N[C@H]1[C@H](OCCCCCCN)O[C@H](CO)[C@@H](O[C@@H]2O[C@H](CO)[C@H](O)[C@H](O[C@]3(C(=O)O)C[C@H](O)[C@@H](NC(C)=O)[C@H]([C@H](O)[C@H](O)CO)O3)[C@H]2O)[C@@H]1O[C@@H]1O[C@@H](C)[C@@H](O)[C@@H](O)[C@@H]1O [III (n = 6), reference compound]	–
390	400	CC(=O)N[C@H]1[C@H](OCCCCCCNC(=O)CCSSc2ccccn2)O[C@H](CO)[C@@H](O[C@@H]2O[C@H](CO)[C@H](O)[C@H](O[C@]3(C(=O)O)C[C@H](O)[C@@H](NC(C)=O)[C@H]([C@H](O)[C@H](O)CO)O3)[C@H]2O)[C@@H]1O[C@@H]1O[C@@H](C)[C@@H](O)[C@@H](O)[C@@H]1O [Compound I-10]	–
–	1500	CC(=O)N[C@H]1[C@H](OCCCCCCNC(=O)CCC(=O)O)O[C@H](CO)[C@@H](O[C@@H]2O[C@H](CO)[C@H](O)[C@H](O[C@]3(C(=O)O)C[C@H](O)[C@@H](NC(C)=O)[C@H]([C@H](O)[C@H](O)CO)O3)[C@H]2O)[C@@H]1O[C@@H]1O[C@@H](C)[C@@H](O)[C@@H](O)[C@@H]1O [Compound I-7]	–
–	600	CC(=O)N[C@H]1[C@H](OCCCCCCNC(=O)CCCC[C@@H]2SC[C@@H]3NC(=O)N[C@@H]32)O[C@H](CO)[C@@H](O[C@@H]2O[C@H](CO)[C@H](O)[C@H](O[C@]3(C(=O)O)C[C@H](O)[C@@H](NC(C)=O)[C@H]([C@H](O)[C@H](O)CO)O3)[C@H]2O)[C@@H]1O[C@@H]1O[C@@H](C)[C@@H](O)[C@@H](O)[C@@H]1O [Compound I-11]	–
–	330	CC(=O)N[C@H]1[C@H](OCCCCCCNC(=O)C2CCC(CN3C(=O)C=CC3=O)CC2)O[C@H](CO)[C@@H](O[C@@H]2O[C@H](CO)[C@H](O)[C@H](O[C@]3(C(=O)O)C[C@H](O)[C@@H](NC(C)=O)[C@H]([C@H](O)[C@H](O)CO)O3)[C@H]2O)[C@@H]1O[C@@H]1O[C@@H](C)[C@@H](O)[C@@H](O)[C@@H]1O (stereo partly drawn) [Compound I-9]	–
–	–	CC(=O)N[C@H]1[C@H](OCCCCCCNC(=O)CCCCCNC(=O)CCC(CCC(=O)NCCCCCC(=O)NCCCCCCO[C@@H]2O[C@H](CO)[C@@H](O[C@@H]3O[C@H](CO)[C@H](O)[C@H](O[C@]4(C(=O)O)C[C@H](O)[C@@H](NC(C)=O)[C@H]([C@H](O)[C@H](O)CO)O4)[C@H]3O)[C@H](O[C@@H]3O[C@@H](C)[C@@H](O)[C@@H](O)[C@@H]3O)[C@H]2NC(C)=O)(CCC(=O)NCCCCCC(=O)NCCCCCCO[C@@H]2O[C@H](CO)[C@@H](O[C@@H]3O[C@H](CO)[C@H](O)[C@H](O[C@]4(C(=O)O)C[C@H](O)[C@@H](NC(C)=O)[C@H]([C@H](O)[C@H](O)CO)O4)[C@H]3O)[C@H](O[C@@H]3O[C@@H](C)[C@@H](O)[C@@H](O)[C@@H]3O)[C@H]2NC(C)=O)[N+](=O)[O-])O[C@H](CO)[C@@H](O[C@@H]2O[C@H](CO)[C@H](O)[C@H](O[C@]3(C(=O)O)C[C@H](O)[C@@H](NC(C)=O)[C@H]([C@H](O)[C@H](O)CO)O3)[C@H]2O)[C@@H]1O[C@@H]1O[C@@H](C)[C@@H](O)[C@@H](O)[C@@H]1O [II-3]	IC50 (P-Selectin; read-out: IC50 P-Selectin, inhibition of HL60 cell adhesion to soluble, recombinant adhesion molecules): > 1000 µM; IC50 (E-Selectin; read-out: IC50 E-Selectin, inhibition of HL60 cell adhesion to soluble, recombinant adhesion molecules): 400 µM
> 800	> 800	CSCC[C@H](NC=O)C(=O)N[C@@H](CC(C)C)C(=O)N[C@@H](Cc1ccccc1)C(=O)NCCCCCCO[C@@H]1O[C@H](CO)[C@@H](O[C@@H]2O[C@H](CO)[C@H](O)[C@H](O[C@]3(C(=O)O)C[C@H](O)[C@@H](NC(C)=O)[C@H]([C@H](O)[C@H](O)CO)O3)[C@H]2O)[C@H](O[C@@H]2O[C@@H](C)[C@@H](O)[C@@H](O)[C@@H]2O)[C@H]1NC(C)=O [Compound I-12]	–
